Experimental data as given in patent US10973832B2, “Muscarinic M1 receptor agonists” (Heptares Therapeutics Limited, priority 2011, dated 2021).

Columns and labels:
[1] = test system: Male Wistar rats; assay: Novel object recognition; format: in vivo
Protocol: The novel object recognition paradigm is based on the greater spontaneous exploration of a novel object, compared with a familiar object, shown by rodents (Ennaceur and Delacour, 1988). […] Male Wistar rats were assessed for cognitive ability in a test apparatus comprising an open-field arena placed in a sound-attenuated room under dimmed lighting. Images of the open-field were captured by digital camera, and viewed on a monitor in an adjoining room. Each rat was subjected to the procedure separately and care taken to remove any olfactory/taste cues by cleaning the arena and test objects with alcohol between trials and rats. All tests are video scored blind to treatment. Following a 10-minute habituation period, each rat was placed into the test arena in the presence of two identical objects (plastic shapes). Each rat was placed facing the same direction at the same position in the arena, and the time spent actively exploring the objects during a 5-minute training period (T1) was recorded. The rat is returned to its home cage between tests. After 24 hours, each rat was again placed in the test arena for 5 minutes (T2) in the presence of one of the familiar objects and a novel object, and the time spent exploring both objects again recorded. The presentation order and position of the objects (left/right) was randomized between rats to prevent bias from order or place preference. Doses of 3, 10 or 30 mg/kg of test compound were administered by oral gavage 90 minutes prior to training (n=8). Donepezil (0.1 mg/kg) and galanthamine (3 mg/kg) were administered via intraperitoneal injection 60 minutes prior to training. Vehicle-treated controls were employed for comparison.

[2] = biological target: T1, human muscarinic M1 receptor (Homo sapiens, UniProt P11229); assay: Phospho-ERK1/2 assay, muscarinic M1; format: cell-based
T1 sequence (P11229 1-460): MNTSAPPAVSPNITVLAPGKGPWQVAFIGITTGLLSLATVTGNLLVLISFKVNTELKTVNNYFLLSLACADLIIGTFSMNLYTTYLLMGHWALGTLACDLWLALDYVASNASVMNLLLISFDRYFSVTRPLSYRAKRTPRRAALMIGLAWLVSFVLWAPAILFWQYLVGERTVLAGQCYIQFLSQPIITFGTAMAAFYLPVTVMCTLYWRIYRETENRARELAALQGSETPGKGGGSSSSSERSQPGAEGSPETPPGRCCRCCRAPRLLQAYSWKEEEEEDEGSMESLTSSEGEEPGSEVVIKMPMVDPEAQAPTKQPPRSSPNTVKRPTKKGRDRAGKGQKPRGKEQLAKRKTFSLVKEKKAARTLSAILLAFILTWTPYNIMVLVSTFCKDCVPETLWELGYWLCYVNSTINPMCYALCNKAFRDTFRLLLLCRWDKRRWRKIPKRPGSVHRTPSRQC
How it was run: (§1)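 Read-out: AlphaScreen SureFire signal for phospho-ERK1/2 in lysates of stably transfected CHO cells, read after 2 h in the dark. Cells were serum-starved overnight and given agonist for 5 min at 37 °C. Values are pEC50 and Emax.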

[3] = biological target: T2, human muscarinic M2 receptor (Homo sapiens, UniProt P08172); assay: Phospho-ERK1/2 assay, muscarinic M2; format: cell-based
T2 sequence (P08172 1-466): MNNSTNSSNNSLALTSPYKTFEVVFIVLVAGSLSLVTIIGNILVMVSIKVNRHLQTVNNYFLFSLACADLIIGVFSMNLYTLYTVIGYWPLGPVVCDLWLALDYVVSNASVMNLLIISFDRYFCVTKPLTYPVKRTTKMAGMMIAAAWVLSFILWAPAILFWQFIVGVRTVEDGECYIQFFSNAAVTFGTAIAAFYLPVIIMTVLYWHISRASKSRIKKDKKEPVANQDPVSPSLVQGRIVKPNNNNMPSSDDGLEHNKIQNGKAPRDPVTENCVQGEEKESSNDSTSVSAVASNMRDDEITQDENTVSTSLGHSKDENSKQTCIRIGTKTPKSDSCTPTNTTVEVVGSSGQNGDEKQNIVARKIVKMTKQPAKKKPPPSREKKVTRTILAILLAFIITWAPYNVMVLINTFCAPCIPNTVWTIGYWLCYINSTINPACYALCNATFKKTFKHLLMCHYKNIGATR
How it was run: as §1

[4] = biological target: T3, human muscarinic M3 receptor (Homo sapiens, UniProt P20309); assay: Phospho-ERK1/2 assay, muscarinic M3; format: cell-based
T3 construct: expressed in transfected cells
T3 sequence (P20309 whole entry): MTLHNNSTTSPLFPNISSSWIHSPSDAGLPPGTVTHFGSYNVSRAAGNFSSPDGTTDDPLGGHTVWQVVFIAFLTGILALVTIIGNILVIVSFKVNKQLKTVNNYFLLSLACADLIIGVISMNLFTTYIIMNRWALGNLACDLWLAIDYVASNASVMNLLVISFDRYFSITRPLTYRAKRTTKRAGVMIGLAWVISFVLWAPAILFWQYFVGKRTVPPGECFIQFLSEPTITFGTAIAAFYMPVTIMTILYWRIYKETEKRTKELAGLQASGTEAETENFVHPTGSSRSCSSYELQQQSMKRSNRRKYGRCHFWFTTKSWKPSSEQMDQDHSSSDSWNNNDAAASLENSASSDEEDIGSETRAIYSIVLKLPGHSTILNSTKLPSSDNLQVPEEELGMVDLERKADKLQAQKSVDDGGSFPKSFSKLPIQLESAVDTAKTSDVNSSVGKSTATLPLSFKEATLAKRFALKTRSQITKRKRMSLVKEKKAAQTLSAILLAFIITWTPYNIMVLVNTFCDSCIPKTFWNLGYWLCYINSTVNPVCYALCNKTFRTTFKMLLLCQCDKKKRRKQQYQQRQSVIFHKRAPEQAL
How it was run: as §1

[5] = biological target: T4, human muscarinic M4 receptor (Homo sapiens, UniProt P08173); assay: Phospho-ERK1/2 assay, muscarinic M4; format: cell-based
T4 construct: expressed in transfected cells
T4 sequence (P08173 1-479): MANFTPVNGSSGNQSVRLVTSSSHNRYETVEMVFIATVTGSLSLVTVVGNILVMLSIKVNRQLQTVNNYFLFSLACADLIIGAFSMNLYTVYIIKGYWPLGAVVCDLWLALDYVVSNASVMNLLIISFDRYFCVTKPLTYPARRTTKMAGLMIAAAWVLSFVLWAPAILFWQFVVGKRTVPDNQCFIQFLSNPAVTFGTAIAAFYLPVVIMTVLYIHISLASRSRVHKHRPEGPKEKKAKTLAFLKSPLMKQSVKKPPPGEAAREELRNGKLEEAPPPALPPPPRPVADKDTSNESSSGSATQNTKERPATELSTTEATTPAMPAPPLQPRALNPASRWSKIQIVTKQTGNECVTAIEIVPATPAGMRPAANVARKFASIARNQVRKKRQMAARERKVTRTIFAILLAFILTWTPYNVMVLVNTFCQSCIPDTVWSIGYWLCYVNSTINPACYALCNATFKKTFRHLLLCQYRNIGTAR
How it was run: as §1

[6] = test system: CA1 region of rat hippocampal slices; assay: CA1 cell firing (fEPSP amplitude); format: cell-based; details: five point cumulative concentration-response, 6 slices averaged
Protocol: Rat hippocampal slices of […] thickness were cut in chilled (<4° C.) artificial cerebrospinal fluid (aCSF, composition in mM: NaCl 127, KCl 1.6, KH2PO4 1.24, MgSO4 1.3, CaCl2 2.4, NaHCO3 26 and D-glucose 10) using vibratome. Slices were maintained in oxygenated (95% O2/5% CO2) aCSF at room temperature for at least 1 hr prior to electrophysiological recording, after which they were transferred to an interface chamber and constantly perfused with warmed (30° C.) oxygenated aCSF at a flow rate of 1.5-3 ml·min−1. Schaffer collaterals were then stimulated (1-20 V, 0.1 ms pulse width, 0.033 Hz) with a concentric bipolar electrode to evoke field excitatory post synaptic potentials (fEPSPs) recorded from the stratum radiatum of the CA1 region.
Experiments were performed to examine the effect of compound compared to […] carbachol (CCh), on the amplitude of fEPSPs in the CA1 region of rat hippocampal slices. 1 μM CCh was initially applied until steady-state, followed by wash, before performing a five point cumulative concentration-response to compound. Each compound was tested on 6 slices and results averaged. Drug preparation; compound was dissolved in 100% DMSO at a stock concentration of 30 mM, and diluted according to requirements, carbamoylcholine chloride (CCh) was purchased from Sigma (Cat #C4382) and dissolved at a stock concentration of 1 mM in ddH2O.

SMILES: COc1cc2c(cc1OC)C(=O)C(CC1CCN(Cc3ccccc3)CC1)C2 (centres unmarked) [Donepezil, donepezil]
- novel object recognition memory vs vehicle-treated controls ([1]; 0.1 mg/kg intraperitoneal 60 minutes prior to training): without effect on novel object recognition

SMILES: COc1ccc2c3c1O[C@H]1C[C@@H](O)C=C[C@@]31CCN(C)C2 [galanthamine]
- novel object recognition memory vs vehicle-treated controls ([1]; 3 mg/kg intraperitoneal 60 minutes prior to training, p<0.05): significantly improved novel object recognition memory

SMILES: CCOC(=O)N1CCCC(N2CCC(C(=O)NCC(C)C)CC2)CC1 (centres unmarked) [Example 6, ethyl 4-(4-((2-methylpropyl)carbamoyl)piperidin-1-yl)azepane-1-carboxylate]
- EC50 ([2]; CHO cells expressing human M1, phospho-ERK1/2 Alphascreen, read-out: pEC50 M1 (converted)): 85.1 nM
- Emax ([2]; CHO, read-out: % Emax cf. ACh (M1)): 113%
- EC50 ([3]; CHO cells expressing human M2, phospho-ERK1/2 Alphascreen, read-out: pEC50 M2 (converted)): > 20000 nM
- Emax ([3]; CHO, read-out: % Emax cf. ACh (M2)): 10%
- EC50 ([4]; CHO cells expressing human M3, phospho-ERK1/2 Alphascreen, read-out: pEC50 M3 (converted)): > 20000 nM
- Emax ([4]; CHO, read-out: % Emax cf. ACh (M3)): 33%
- EC50 ([5]; CHO cells expressing human M4, phospho-ERK1/2 Alphascreen, read-out: pEC50 M4 (converted)): 1050 nM
- Emax ([5]; CHO, read-out: % Emax cf. ACh (M4)): 76%
- EC50 [6]: 4100 nM
